System: Methicillin resistant Staphylococcus aureus (MRSA) biofilms
Assay: MRSA biofilm deep partial thickness wound model
Assay type: in vivo
Conditions: 24 hours after treatment; for reduction of MRSA counts in wounds: porcine wounds
Description: Rectangular wounds measuring (10 mm×7 mm×0.5 mm) were made on the paravertebral and thoracic area (porcine) with a specialized electrokeratome fitted with a 7 mm blade. Wounds were inoculated with 250 μL of a 10^6 CFU/ml suspension and covered individually with a polyurethane film dressing to allow for biofilm formation. After 24 hours, the dressings were removed and wounds were randomly assigned to one of the following treatment groups: 1) untreated control, 2) ErYag, 3) ErYag plus gentamycin or 3) gentamycin alone. After treatment the wounds were covered with a new polyurethane film dressing and after 24 hours wounds were recovered for MRSA counts using a well published scrub technique. Oxicillin resistance screening agar (ORSAB) was used to isolate MRSA from the wounds. All plates were incubated aerobically overnight (16-24 hours) at 37° C., after which the number of viable colonies will be counted.
Methicillin resistant Staphylococcus aureus (MRSA) biofilms were created using a deep partial thickness wound model (described above). Wounds were randomly assigned to one of the following treatment groups: 1) untreated control, 2) ErYag, 3) ErYag plus gentamycin or 3) gentamycin alone. Twenty four hours after treatment, MRSA was recovered. […] However in combination (Laser+gentamycin) were able to reduce MRSA counts by 1.72 Log CFU/ml.

[1] = in combination with ErYag laser

gentamycin
reduction of MRSA counts in wounds (gentamycin alone): 0.6 Log CFU/ml | reduction in MRSA [1]: 98.09% | reduction of MRSA counts in wounds [1]: 1.72 Log CFU/ml

— patent publication US20140303546A1, “LASER ASSISTED DELIVERY OF FUNCTIONAL CELLS, PEPTIDES AND NUCLEOTIDES” (priority 2011, published 2014)
